The source of these data is patent US20180057507A1, “INHIBITORS OF DUAL LEUCINE ZIPPER (DLK) KINASE FOR THE TREATMENT OF DISEASE” (Board of Regents, The University of Texas System, priority 2016, published 2018).

For the assay, the target named is T1, human DLK (Homo sapiens, UniProt Q12852).
T1 sequence (Q12852 1-859): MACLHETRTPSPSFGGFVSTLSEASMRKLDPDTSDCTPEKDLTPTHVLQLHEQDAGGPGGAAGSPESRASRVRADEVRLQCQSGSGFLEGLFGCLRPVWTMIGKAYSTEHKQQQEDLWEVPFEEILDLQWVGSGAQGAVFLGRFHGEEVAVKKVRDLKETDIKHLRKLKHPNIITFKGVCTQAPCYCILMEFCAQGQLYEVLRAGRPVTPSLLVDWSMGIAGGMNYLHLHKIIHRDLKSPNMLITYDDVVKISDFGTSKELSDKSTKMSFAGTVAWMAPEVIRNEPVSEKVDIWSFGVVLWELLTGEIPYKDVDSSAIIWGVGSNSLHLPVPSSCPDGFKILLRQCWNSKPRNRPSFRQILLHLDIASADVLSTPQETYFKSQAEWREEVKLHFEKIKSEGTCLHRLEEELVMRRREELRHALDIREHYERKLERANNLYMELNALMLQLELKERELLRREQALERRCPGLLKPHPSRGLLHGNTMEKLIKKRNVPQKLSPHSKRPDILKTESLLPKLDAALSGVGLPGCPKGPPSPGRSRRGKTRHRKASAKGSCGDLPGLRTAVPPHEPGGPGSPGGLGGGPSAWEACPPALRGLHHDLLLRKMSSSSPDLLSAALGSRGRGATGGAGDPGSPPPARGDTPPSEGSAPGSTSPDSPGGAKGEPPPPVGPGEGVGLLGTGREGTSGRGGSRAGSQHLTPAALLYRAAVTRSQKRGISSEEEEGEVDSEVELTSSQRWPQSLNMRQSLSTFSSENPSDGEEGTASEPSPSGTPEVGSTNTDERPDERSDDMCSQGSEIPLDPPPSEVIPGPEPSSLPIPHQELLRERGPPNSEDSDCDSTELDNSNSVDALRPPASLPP
In words: DLK Kd Determinations (KINOMEscan KdELECT, DiscoveRx). Also on record: full length of human DLK (amino acids 1-859); host or cells: transiently transfected HEK293 cells; unpurified extract. The settings on record: fusion protein of full length human DLK (amino acids 1-859) and NFkB DNA binding domain; qPCR readout; duplicate. As to the method: The DLK dissociation constants (Kd) have been determined in the KINOMEscan KdELECT Service at DiscoveRx.
A fusion protein of full length of human DLK (amino acids 1-859) and the DNA binding domain of NFkB was expressed in transiently transfected HEK293 cells. From these HEK 293 cells, extracts were prepared in M-PER extraction buffer (Pierce) in the presence of Protease Inhibitor Cocktail Complete (Roche) and Phosphatase Inhibitor Cocktail Set II (Merck) per manufacturers' instructions. The DLK fusion protein was labeled with a chimeric double-stranded DNA tag containing the NFkB binding site (5′-GGGAATTCCC-3′) fused to an amplicon for qPCR readout, which was added directly to the expression extract (the final concentration of DNA-tag in the binding reaction is 0.1 nM).
Streptavidin-coated magnetic beads (Dynal M280) were treated with a biotinylated small molecule ligand for 30 minutes at room temperature to generate affinity resins the binding assays. The liganded beads were blocked with excess biotin and washed with blocking buffer (SeaBlock (Pierce), 1% BSA, 0.05% Tween 20, 1 mM DTT) to remove unbound ligand and to reduce nonspecific binding.
Extracts were used directly in binding assays without any enzyme purification steps at a ≧10,000-fold overall stock dilution (final DNA-tagged enzyme concentration <0.1 nM). Extracts were loaded with DNA-tag and diluted into the binding reaction in a two step process. First extracts were diluted 1:100 in 1× binding buffer (PBS/0.05% Tween 20/10 mM DTT/0.1% BSA/2 μg/ml sonicated salmon sperm DNA) containing 10 nM DNA-tag. This dilution was allowed to equilibrate at room temperature for 15 minutes and then subsequently diluted 1:100 in 1× binding buffer. Test compounds were prepared as 111× stocks in 100% DMSO. Kds were determined using an 11-point 3-fold compound dilution series with three DMSO control points. All compounds for Kd measurements are distributed by acoustic transfer (non-contact dispensing) in 100% DMSO. The compounds were then diluted directly into the assays such that the final concentration of DMSO was 0.9%. All reactions performed in polypropylene 384-well plates. Each was a final volume of 0.02 mL. Assays were incubated with shaking for 1 hour at room temperature. Then the beads were pelleted and washed with wash buffer (1×PBS, 0.05% Tween 20) to remove displaced kinase and test compound. The washed based were re-suspended in elution buffer (1×PBS, 0.05% Tween 20, 0.5 μM non-biotinylated affinity ligand) and incubated at room temperature with shaking for 30 minutes. The kinase concentration in the eluates was measured by qPCR. qPCR reactions were assembled by adding 2.5 μL of kinase eluate to 7.5 μL of qPCR master mix containing 0.15 μM amplicon primers and 0.15 μM amplicon probe. The qPCR protocol consisted of a 10 minute hot start at 95° C., followed by 35 cycles of 95° C. for 15 seconds, 60° C. for 1 minute.
Test compounds were prepared as 111× stocks in 100% DMSO. Kds were determined using an 11-point 3-fold compound dilution series with three DMSO control points. All compounds for Kd measurements are distributed by acoustic transfer (non-contact dispensing) in 100% DMSO. The compounds were then diluted directly into the assays such that the final concentration of DMSO was 0.9%. The Kds were determined using a compound top concentration of 30,000 nM. Kd measurements were performed in duplicate.
Binding constants (Kds) were calculated with a standard dose-response curve using the Hill equation: […]
The Hill Slope was set to −1. Curves were fitted using a non-linear least square fit with the Levenberg-Marquardt algorithm (Levenberg, K., A method for the solution of certain non-linear problems in least squares, Q. Appl. Math. 2, 164-168 (1944)). See also Fabian, M. A. et al. A small molecule-kinase interaction map for clinical kinase inhibitors. Nat. Biotechnol. […]
(In general: Quantitative PCR measures a nucleic acid by following its amplification.)
In general, Kd refers to the constant that tells how readily two partners part at equilibrium. A lower Kd goes with tighter binding. `CC(C)c1nc(-c2cnc(N)c(C(F)(F)F)c2)cn1C1CCCC1` [Example 28, 5-(1-cyclopentyl-2-isopropyl-1H-imidazol-4-yl)-3-(trifluoromethyl)pyridin-2-amine]: the Kd is 220 nM. In other words, the sub-micromolar range. Take `CC(C)c1nc(-c2cnc(N)c(C(F)(F)F)c2)cn1C1COC1` [Example 29, 5-(2-isopropyl-1-(oxetan-3-yl)-1H-imidazol-4-yl)-3-(trifluoromethyl)pyridin-2-amine]: the Kd amounted to 1000 nM. Under `CC(C)c1nc(-c2cnc(N)c(C(F)(F)F)c2)cn1Cc1ccccn1` [Example 30, 5-(2-isopropyl-1-(pyridin-2-ylmethyl)-1H-imidazol-4-yl)-3-(trifluoromethyl)pyridin-2-amine] stands 1500 nM; under `CC(C)c1nc(-c2cnc(N)c(C(F)(F)F)c2)cn1Cc1cccnc1` [Example 32, 5-(2-isopropyl-1-(pyridin-3-ylmethyl)-1H-imidazol-4-yl)-3-(trifluoromethyl)pyridin-2-amine], 940 nM; under `CC(C)c1nc(-c2cnc(N)c(C(F)(F)F)c2)cn1C1CCC(O)CC1` (centres unmarked) [Example 33, 4-(4-(6-amino-5-(trifluoromethyl)pyridin-3-yl)-2-isopropyl-1H-imidazol-1-yl)cyclohexan-1-ol], 130 nM.

In the case of `CC(C)c1nc(-c2cnc(N)c(C(F)(F)F)c2)cn1CC1CCOCC1` [Example 34, 5-(2-isopropyl-1-((tetrahydro-2H-pyran-4-yl)methyl)-1H-imidazol-4-yl)-3-(trifluoromethyl)pyridin-2-amine], the Kd is 870 nM.

`CC(C)c1nc(-c2cnc(N)c(C(F)(F)F)c2)cn1CCC1CCOCC1` [Example 35, 5-(2-isopropyl-1-(2-(tetrahydro-2H-pyran-4-yl)ethyl)-1H-imidazol-4-yl)-3-(trifluoromethyl)pyridin-2-amine] yielded a Kd of 160 nM.

Regarding `CC(C)c1nc(-c2cnc(N)c(C(F)(F)F)c2)cn1C1CCN(C2COC2)C1` (centres unmarked) [Example 36, 5-(2-isopropyl-1-(1-(oxetan-3-yl)pyrrolidin-3-yl)-1H-imidazol-4-yl)-3-(trifluoromethyl)pyridin-2-amine], the Kd was found to be 350 nM.

Take `CC(C)c1nc(-c2cnc(N)c(C(F)(F)F)c2)cn1C1CC(N2CCOCC2)C1` (centres unmarked) [Example 37, 5-(2-isopropyl-1-(3-morpholinocyclobutyl)-1H-imidazol-4-yl)-3-(trifluoromethyl)pyridin-2-amine]: binding was put at a Kd of 92 nM. Compound `Nc1ncc(-c2cn(C3CC3)c(CC(F)(F)F)n2)cc1C(F)(F)F` [Example 46, 5-(1-cyclopropyl-2-(2,2,2-trifluoroethyl)-1H-imidazol-4-yl)-3-(trifluoromethyl)pyridin-2-amine] had a dissociation constant Kd of 280 nM. Under `Nc1ncc(-c2cn(C3CC3)c(CC3CC3)n2)cc1C(F)(F)F` [Example 47, 5-(1-cyclopropyl-2-(cyclopropylmethyl)-1H-imidazol-4-yl)-3-(trifluoromethyl)pyridin-2-amine] stands 120 nM. For the compound `Nc1ncc(-c2cn3c(n2)C(C2CC2)OCC3)cc1C(F)(F)F` (centres unmarked) [Example 49, 5-(8-cyclopropyl-5,6-dihydro-8H-imidazo[2,1-c][1,4]oxazin-2-yl)-3-(trifluoromethyl)pyridin-2-amine], binding was characterised by a dissociation constant (Kd) of 1200 nM.

Turning to `CC(C)c1nc(-c2cnc(N)c(OC(F)F)c2)cn1[C@H]1[C@@H]2CNC[C@@H]21` [Example 50, 5-(1-((1R,5S,6s)-3-azabicyclo[3.1.0]hexan-6-yl)-2-isopropyl-1H-imidazol-4-yl)-3-(difluoromethoxy)pyridin-2-amine], binding was characterised by a dissociation constant (Kd) of 170 nM. `Nc1ncc(-c2cn([C@H]3[C@@H]4CN(C5COC5)C[C@@H]43)c(C3CCC3)n2)cc1C(F)(F)F` [Example 51, 5-(2-cyclobutyl-1-((1R,5S,6s)-3-(oxetan-3-yl)-3-azabicyclo[3.1.0]hexan-6-yl)-1H-imidazol-4-yl)-3-(trifluoromethyl)pyridin-2-amine] had a dissociation constant Kd of 130 nM. This Kd and that of the compound before are within 1.5-fold of each other. `Nc1ncc(-c2cn([C@H]3[C@@H]4CN(C5COC5)C[C@@H]43)c(CC(F)(F)F)n2)cc1C(F)(F)F` [Example 52, 5-(1-((1R,5S,6s)-3-(oxetan-3-yl)-3-azabicyclo[3.1.0]hexan-6-yl)-2-(2,2,2-trifluoroethyl)-1H-imidazol-4-yl)-3-(trifluoromethyl)pyridin-2-amine] came in with a Kd of 100 nM.

In turn, `CC(=O)N1C[C@@H]2[C@H](C1)[C@H]2n1cc(-c2cnc(N)c(OC(F)(F)F)c2)nc1C1CC1` [Example 54, 1-((1R,5S)-6-(4-(6-amino-5-(trifluoromethoxy)pyridin-3-yl)-2-cyclopropyl-1H-imidazol-1-yl)-3-azabicyclo[3.1.0]hexan-3-yl)ethan-1-one] had a Kd of 110 nM. Consider `COCCN1C[C@@H]2[C@H](C1)[C@H]2n1cc(-c2cnc(N)c(OC(F)F)c2)nc1C(C)C` [Example 55, 3-(difluoromethoxy)-5-(2-isopropyl-1-((1R,5S,6s)-3-(2-methoxyethyl)-3-azabicyclo[3.1.0]hexan-6-yl)-1H-imidazol-4-yl)pyridin-2-amine], for which binding was put at a Kd of 240 nM.

On to `Nc1ncc(-c2cn([C@H]3[C@@H]4CN(C5COC5)C[C@@H]43)c(C3CCC3)n2)cc1OC(F)(F)F` [Example 56, 5-(2-cyclobutyl-1-((1R,5S,6s)-3-(oxetan-3-yl)-3-azabicyclo[3.1.0]hexan-6-yl)-1H-imidazol-4-yl)-3-(trifluoromethoxy)pyridin-2-amine], for which the affinity, expressed as Kd, was 280 nM. The Kd values of the last two compounds are within 1.5-fold of each other. As to `Nc1ncc(-c2cn([C@H]3[C@@H]4CN(C5COC5)C[C@@H]43)c(C3CCC3)n2)cc1OC(F)F` [Example 57, 5-(2-cyclobutyl-1-((1R,5S,6s)-3-(oxetan-3-yl)-3-azabicyclo[3.1.0]hexan-6-yl)-1H-imidazol-4-yl)-3-(difluoromethoxy)pyridin-2-amine], the dissociation constant (Kd) turned out to be 180 nM. In the case of `CC(C)c1nc(-c2cnc(N)c(OC(F)(F)F)c2)cn1[C@H]1[C@@H]2CNC[C@@H]21` [Example 58, 5-(1-((1R,5S,6s)-3-azabicyclo[3.1.0]hexan-6-yl)-2-isopropyl-1H-imidazol-4-yl)-3-(trifluoromethoxy)pyridin-2-amine], the dissociation constant (Kd) was found to be 94 nM.
